Test results published in PubChem BioAssay (NCI).
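Following 48 hours of exposure in 96-well plates, responses at five concentrations were used to interpolate endpoints linearly. The concentration for full growth arrest is given as TGI.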

Legend:
Experiment in all cases: inhibition of tumour cell growth, NCI panel, 48 h
NCI-H460 lung = system: NCI-H460 lung
UO-31 renal = system: UO-31 renal
HOP-62 NSCLC = system: HOP-62 NSCLC
K-562 leukemia = system: K-562 leukemia
RPMI-8226 leukemia = system: RPMI-8226 leukemia
EKVX NSCLC = system: EKVX NSCLC
UACC-62 melanoma = system: UACC-62 melanoma
COLO 205 colon = system: COLO 205 colon
SK-MEL-28 melanoma = system: SK-MEL-28 melanoma
OVCAR-4 ovarian = system: OVCAR-4 ovarian
SNB-19 CNS = system: SNB-19 CNS
SF-295 CNS = system: SF-295 CNS
SNB-75 CNS = system: SNB-75 CNS
SW-620 colon = system: SW-620 colon
T-47D breast = system: T-47D breast
SK-MEL-2 melanoma = system: SK-MEL-2 melanoma
OVCAR-8 ovarian = system: OVCAR-8 ovarian
OVCAR-5 ovarian = system: OVCAR-5 ovarian
KM12 colon = system: KM12 colon
M14 melanoma = system: M14 melanoma
MDA-MB-231 breast = system: MDA-MB-231 breast
LOX IMVI melanoma = system: LOX IMVI melanoma
NCI-H23 lung = system: NCI-H23 lung
NCI/ADR-RES ovarian = system: NCI/ADR-RES ovarian
786-0 renal = system: 786-0 renal
HS 578T breast = system: HS 578T breast
MCF7 breast = system: MCF7 breast
HCC-2998 colon = system: HCC-2998 colon
MDA-N = system: MDA-N
UACC-257 melanoma = system: UACC-257 melanoma
SR leukemia = system: SR leukemia
PC-3 prostate = system: PC-3 prostate
SK-OV-3 ovarian = system: SK-OV-3 ovarian
MOLT-4 leukemia = system: MOLT-4 leukemia
BT-549 breast = system: BT-549 breast
OVCAR-3 ovarian = system: OVCAR-3 ovarian
NCI-H226 lung = system: NCI-H226 lung
TK-10 renal = system: TK-10 renal
A549 NSCLC = system: A549 NSCLC
ACHN renal = system: ACHN renal
HCT-15 colon = system: HCT-15 colon
A498 renal = system: A498 renal
MDA-MB-435 = system: MDA-MB-435
SN12C renal = system: SN12C renal
U251 CNS = system: U251 CNS
DU-145 prostate = system: DU-145 prostate
SF-268 CNS = system: SF-268 CNS
HCT-116 colon = system: HCT-116 colon
RXF 393 renal = system: RXF 393 renal
SF-539 CNS = system: SF-539 CNS
HL-60(TB) leukemia = system: HL-60(TB) leukemia
NCI-H522 lung = system: NCI-H522 lung
IGROV1 ovarian = system: IGROV1 ovarian
CCRF-CEM leukemia = system: CCRF-CEM leukemia
HT29 colon = system: HT29 colon
CAKI-1 renal = system: CAKI-1 renal
MALME-3M melanoma = system: MALME-3M melanoma
SK-MEL-5 melanoma = system: SK-MEL-5 melanoma

Measured: TGI

O=C(O)CCC(N=C(C(=NC(CCC(=O)O)C(=O)O)c1ccccc1)c1ccccc1)C(=O)O (configuration not stated)
not listed: SF-539 CNS | HL-60(TB) leukemia | NCI-H522 lung | IGROV1 ovarian | CCRF-CEM leukemia | HT29 colon | CAKI-1 renal | MALME-3M melanoma | SK-MEL-5 melanoma
> 100 µM: all other assays above

COc1ccc(-c2c3ccccc3c(-c3ccc(OCCBr)cc3)c3ccccc23)cc1
1.61 µM: UO-31 renal
not listed: K-562 leukemia
> 100 µM: all other assays above

Clc1ccc(Cl)c(NNc2cc(Cl)ccc2Cl)c1
7.43 µM: ACHN renal
7.18 µM: NCI-H23 lung
9 µM: NCI/ADR-RES ovarian
8.6 µM: SK-MEL-2 melanoma
6.35 µM: SK-MEL-5 melanoma
9.7 µM: MALME-3M melanoma
7.81 µM: OVCAR-3 ovarian
not listed: UO-31 renal | SNB-75 CNS
> 10 µM: all other assays above

C#Cc1nc(N)c2ncn(C3OC(COS(N)(=O)=O)C(O)C3O)c2n1 (configuration not stated)
0.736 µM: HS 578T breast
0.344 µM: SK-MEL-5 melanoma
0.481 µM: HT29 colon
0.136 µM: NCI-H23 lung
< 0.0476 µM: MDA-MB-231 breast
0.665 µM: SW-620 colon
0.0196 µM: SK-MEL-2 melanoma
0.457 µM: M14 melanoma
0.122 µM: OVCAR-5 ovarian
0.191 µM: HCC-2998 colon
0.213 µM: PC-3 prostate
< 0.0302 µM: A498 renal
0.634 µM: NCI-H460 lung
0.198 µM: SF-539 CNS
0.369 µM: UACC-62 melanoma
< 0.0299 µM: MDA-N
0.339 µM: UACC-257 melanoma
0.225 µM: CAKI-1 renal
0.449 µM: U251 CNS
0.0491 µM: NCI-H226 lung
0.266 µM: SNB-19 CNS
0.194 µM: OVCAR-8 ovarian
0.349 µM: SNB-75 CNS | BT-549 breast
0.688 µM: SF-268 CNS
< 0.0258 µM: CCRF-CEM leukemia | MOLT-4 leukemia
0.298 µM: SK-MEL-28 melanoma
< 0.01 µM: T-47D breast | NCI-H522 lung | SK-OV-3 ovarian
0.0997 µM: DU-145 prostate
0.15 µM: UO-31 renal
0.429 µM: HCT-15 colon
0.352 µM: KM12 colon
0.11 µM: RPMI-8226 leukemia
< 0.0325 µM: LOX IMVI melanoma
0.0717 µM: MDA-MB-435
1.56 µM: A549 NSCLC
3.17 µM: SF-295 CNS
0.797 µM: 786-0 renal
0.0866 µM: RXF 393 renal
< 0.0291 µM: NCI/ADR-RES ovarian
0.0901 µM: OVCAR-3 ovarian
> 100 µM: K-562 leukemia | MCF7 breast
< 0.0172 µM: SR leukemia
0.288 µM: HCT-116 colon
0.256 µM: SN12C renal
0.327 µM: TK-10 renal
0.114 µM: IGROV1 ovarian
0.0743 µM: ACHN renal
1.97 µM: HOP-62 NSCLC
1.29 µM: EKVX NSCLC

CCCCCC(=O)n1[nH]c(=O)n(-c2ccc(OC)cc2)c1=O
not listed: A498 renal | SF-539 CNS
> 100 µM: all other assays above
